A short description of data set [1]: Intrinsic clearance in human liver microsomes at 0.5 uM after 30 mins in presence of NADPH by LC-MS/MS analysis. The data set is classed as ADME, Microsome. Particulars: 0.5 h.
Data set [2] in a line: Intrinsic clearance in mouse liver microsomes at 0.5 uM after 30 mins in presence of NADPH by LC-MS/MS analysis. It counts as ADME, Microsome. Particulars: 0.5 h.
The nature of another data set: physchem. As to conditions: buffer, pH 7.4, logD.
The conditions of data set [3]: buffer, pH 7.4.

The structures appear in SMILES notation.

The source of these data is ChEMBL document CHEMBL4382257, “Identification and Profiling of Hydantoins-A Novel Class of Potent Antimycobacterial DprE1 Inhibitors” (J Med Chem, 2018).

As for `CC1(c2ccc(N3CCOC3=O)cc2)NC(=O)N(CC(=O)c2ccc(F)cc2F)C1=O` (centres undefined), the CLH in data set [1] is under 0.4 mL/min/g; in data set [2], 3.54 mL/min/g. The chromatographic logD in “physchem” came out at 3.94.
Take `CC1(c2ccc(C#N)cc2)NC(=O)N(CC(=O)c2ccc(F)cc2F)C1=O` (centres undefined): the CLH in data set [1] is 0.49 mL/min/g; in data set [2] it was 3.52 mL/min/g. Besides, the chromatographic logD in “physchem” was found to be 4.54.
The matching figures for `CC1(c2ccc(S(C)(=O)=O)cc2)NC(=O)N(CC(=O)c2ccc(F)cc2F)C1=O` (centres undefined): 0.46 mL/min/g, 2.5 mL/min/g and 3.64.
The matching figures for `CC1(c2ccc(OC(F)F)cc2)NC(=O)N(CC(=O)c2ccc(F)cc2F)C1=O` (centres undefined): under 0.4 mL/min/g, 1.78 mL/min/g and 5.36.
The matching figures for `CC1(c2ccc(NS(C)(=O)=O)cc2)NC(=O)N(CC(=O)c2ccc(F)cc2F)C1=O` (centres undefined): 0.47 mL/min/g, 3.29 mL/min/g and 3.57.
Take `CC1(c2ccc(-n3cnnn3)cc2)NC(=O)N(CC(=O)c2ccc(F)cc2F)C1=O` (centres undefined): the values for the CLH in data set [1] and in data set [2] were under 0.4 mL/min/g and 2.44 mL/min/g, respectively. In addition, the chromatographic logD in the data set “physchem” was found to be 3.78.
Taken in the same sequence, the figures for `CC1(c2ccc(Br)cc2)NC(=O)N(CC(=O)c2ccc(F)cc2F)C1=O` (centres undefined) were under 0.4 mL/min/g, 1.48 mL/min/g and 5.68.
`CC1(c2ccc(C#N)cc2)NC(=O)N(CC(=NO)c2ccc(F)cc2F)C1=O` (stereo in doubt; 43a) came in with a logD in data set [3] of 3.38.
Regarding `CC1(c2ccc(C#N)cc2)NC(=O)N(CC(=NO)c2ccc(F)cc2F)C1=O` (stereo in doubt; 43b), in “physchem”, the chromatographic logD is 3.59.
On the same count and under the same terms, under `COc1ccc(C2(C)CN(CC(=O)c3ccc(F)cc3F)C(=O)N2)cc1` (stereo in doubt; 151a) stands 4.72.
